Experimental data as given in ChEMBL document CHEMBL4184269, “Novel aromatic sulfonyl naphthalene-based boronates as 20S proteasome inhibitors” (Bioorg Med Chem, 2018).

Tested on: A549
Experiment: Antiproliferative activity against human A549 cells after 72 hrs by SRB assay
Assay type: functional, cell-based
Details: not given

Row | IC50 [µM] | Compound
1 | 16.5 | CC(C)C[C@H](NC(=O)C(C)Sc1cc(NS(=O)(=O)c2ccc(Cl)cc2)c2ccccc2c1O)B(O)O (stereo in doubt; 3c) [listing 1 of 2 here]
2 | 4.48 | CC(C)C[C@H](NC(=O)C(C)Sc1cc(NS(=O)(=O)c2ccccc2)c2ccccc2c1O)B(O)O (stereo in doubt; 3b) [listing 1 of 2 here]

Tested on: MCF7
Experiment: Antiproliferative activity against human MCF7 cells after 72 hrs by SRB assay
Assay type: functional, cell-based
Details: Homo sapiens, MCF7, 72 h

Row | IC50 [µM] | Compound
3 | 9.45 | CC(C)C[C@H](NC(=O)CSc1cc(NS(=O)(=O)c2cccs2)c2ccccc2c1O)B(O)O
4 | 4.16 | CC(C)C[C@H](NC(=O)CSc1cc(NS(=O)(=O)c2ccccc2)c2ccccc2c1O)B(O)O
5 | 14.7 | CC(C)C[C@H](NC(=O)C(C)Sc1cc(NS(=O)(=O)c2cccs2)c2ccccc2c1O)B(O)O (stereo not given in full)
6 | 6.47 | CC(C)C[C@H](NC(=O)CCSc1cc(NS(=O)(=O)c2cccs2)c2ccccc2c1O)B(O)O
7 | 16.5 | CC(C)C[C@H](NC(=O)C(C)Sc1cc(NS(=O)(=O)c2ccccc2)c2ccccc2c1O)B(O)O (stereo in doubt; 3b) [listing 1 of 2 here]
8 | 18.4 | CC(C)C[C@H](NC(=O)[C@H](Cc1ccccc1)NC(=O)c1cnccn1)B(O)O [BORTEZOMIB]
9 | 7.46 | CC(C)C[C@H](NC(=O)CCSc1cc(NS(=O)(=O)c2ccccc2)c2ccccc2c1O)B(O)O

Further lines, the compound ahead of its results:

Row | Compound | IC50 [µM]
10 | CC(C)C[C@H](NC(=O)CCSc1cc(NS(=O)(=O)c2ccc(Cl)cc2)c2ccccc2c1O)B(O)O | 6.91
11 | Cc1ccc(S(=O)(=O)Nc2cc(SCC(=O)N[C@@H](CC(C)C)B(O)O)c(O)c3ccccc23)cc1 | 12.8
12 | CC(=O)Nc1ccc(S(=O)(=O)Nc2cc(SCC(=O)N[C@@H](CC(C)C)B(O)O)c(O)c3ccccc23)cc1 | 8.66
13 | Cc1ccc(S(=O)(=O)Nc2cc(SC(C)C(=O)N[C@@H](CC(C)C)B(O)O)c(O)c3ccccc23)cc1 (stereo not given in full) | 8.61
14 | CC(C)C[C@H](NC(=O)C(C)Sc1cc(NS(=O)(=O)c2ccc(Cl)cc2)c2ccccc2c1O)B(O)O (stereo in doubt; 3c) [listing 1 of 2 here] | 10.1
15 | CC(=O)Nc1ccc(S(=O)(=O)Nc2cc(SCCC(=O)N[C@@H](CC(C)C)B(O)O)c(O)c3ccccc23)cc1 | 6.62
16 | Cc1ccc(S(=O)(=O)Nc2cc(SCCC(=O)N[C@@H](CC(C)C)B(O)O)c(O)c3ccccc23)cc1 | 6.94
17 | CC(=O)Nc1ccc(S(=O)(=O)Nc2cc(SC(C)C(=O)N[C@@H](CC(C)C)B(O)O)c(O)c3ccccc23)cc1 (stereo not given in full) | 8.91
18 | CC(C)C[C@H](NC(=O)CSc1cc(NS(=O)(=O)c2ccc(Cl)cc2)c2ccccc2c1O)B(O)O | 10.4

Same assay, conditions: mcf7

Row | IC50 [µM] | Compound
19 | 10.7 | CC(C)C[C@H](NC(=O)C(C)Sc1cc(NS(=O)(=O)c2ccc(Cl)cc2)c2ccccc2c1O)B(O)O (stereo in doubt; 3c-1) [listing 1 of 2 here]
20 | 11.3 | CC(C)C[C@H](NC(=O)C(C)Sc1cc(NS(=O)(=O)c2ccccc2)c2ccccc2c1O)B(O)O (stereo in doubt; 3b-1) [listing 1 of 2 here]

Tested on: not listed separately
Experiment: Metabolic stability in Sprague-Dawley rat liver microsomes assessed as parent compound remaining at […] preincubated for 5 mins followed by NADPH addition measured after 40 mins by HPLC analysis
Assay type: ADME, microsome
Details: read-out: Stability

Row | remaining at 40 min [%] | Compound
21 | 56 | Cc1ccc(S(=O)(=O)Nc2cc(SCCC(=O)N[C@@H](CC(C)C)B(O)O)c(O)c3ccccc23)cc1
22 | 30 | CC(C)C[C@H](NC(=O)[C@H](Cc1ccccc1)NC(=O)c1cnccn1)B(O)O [BORTEZOMIB]

Molecular target: T1, Proteasome Macropain subunit MB1 (Homo sapiens) (UniProt P28074)
T1 sequence (whole entry): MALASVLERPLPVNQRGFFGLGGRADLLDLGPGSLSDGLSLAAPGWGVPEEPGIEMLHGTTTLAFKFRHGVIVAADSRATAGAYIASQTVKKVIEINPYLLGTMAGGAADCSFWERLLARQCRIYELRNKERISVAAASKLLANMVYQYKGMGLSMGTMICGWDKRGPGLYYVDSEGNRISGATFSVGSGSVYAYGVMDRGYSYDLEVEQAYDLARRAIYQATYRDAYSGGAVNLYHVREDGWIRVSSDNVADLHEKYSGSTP
Experiment: Inhibition of chymotrypsin-like activity of human 20S proteasome at 100 nM using Suc-Leu-Leu-Val-Tyr-AMC as substrate by fluorescence assay relative to control
Details: not given

Row | inhibition [%] | Compound
23 | 33.3 | CC(C)C[C@H](NC(=O)CSc1cc(NS(=O)(=O)c2cccs2)c2ccccc2c1O)B(O)O
24 | 32.5 | CC(C)C[C@H](NC(=O)CSc1cc(NS(=O)(=O)c2ccccc2)c2ccccc2c1O)B(O)O
25 | 22.6 | CC(C)C[C@H](NC(=O)C(C)Sc1cc(NS(=O)(=O)c2ccccc2)c2ccccc2c1O)B(O)O (stereo in doubt; 3b) [listing 2 of 2 here]
26 | 41.1 | CC(C)C[C@H](NC(=O)C(C)Sc1cc(NS(=O)(=O)c2cccs2)c2ccccc2c1O)B(O)O (stereo not given in full)
27 | 39.4 | CC(C)C[C@H](NC(=O)C(C)Sc1cc(NS(=O)(=O)c2ccc(Cl)cc2)c2ccccc2c1O)B(O)O (stereo in doubt; 3c-1) [listing 2 of 2 here]
28 | 38.3 | CC(C)C[C@H](NC(=O)CCSc1cc(NS(=O)(=O)c2cccs2)c2ccccc2c1O)B(O)O
29 | 45.6 | CC(C)C[C@H](NC(=O)CCSc1cc(NS(=O)(=O)c2ccccc2)c2ccccc2c1O)B(O)O
30 | 25.4 | CC(C)C[C@H](NC(=O)C(C)Sc1cc(NS(=O)(=O)c2ccccc2)c2ccccc2c1O)B(O)O (stereo in doubt; 3b-1) [listing 2 of 2 here]

Continued, compound first:

Row | Compound | inhibition [%]
31 | CC(C)C[C@H](NC(=O)CCSc1cc(NS(=O)(=O)c2ccc(Cl)cc2)c2ccccc2c1O)B(O)O | 52.5
32 | Cc1ccc(S(=O)(=O)Nc2cc(SCC(=O)N[C@@H](CC(C)C)B(O)O)c(O)c3ccccc23)cc1 | 36.6
33 | CC(=O)Nc1ccc(S(=O)(=O)Nc2cc(SCC(=O)N[C@@H](CC(C)C)B(O)O)c(O)c3ccccc23)cc1 | 40.8
34 | Cc1ccc(S(=O)(=O)Nc2cc(SC(C)C(=O)N[C@@H](CC(C)C)B(O)O)c(O)c3ccccc23)cc1 (stereo not given in full) | 35.5
35 | O=C(O)CSc1cc(NS(=O)(=O)c2cccs2)c2ccccc2c1O | 6.86
36 | CC(C)C[C@H](NC(=O)C(C)Sc1cc(NS(=O)(=O)c2ccc(Cl)cc2)c2ccccc2c1O)B(O)O (stereo in doubt; 3c) [listing 2 of 2 here] | 41.5
37 | CC(=O)Nc1ccc(S(=O)(=O)Nc2cc(SCCC(=O)N[C@@H](CC(C)C)B(O)O)c(O)c3ccccc23)cc1 | 38.4
38 | Cc1ccc(S(=O)(=O)Nc2cc(SCCC(=O)N[C@@H](CC(C)C)B(O)O)c(O)c3ccccc23)cc1 | 54.2
39 | C[S+](C)[O-] | 4.89
40 | CC(=O)Nc1ccc(S(=O)(=O)Nc2cc(SC(C)C(=O)N[C@@H](CC(C)C)B(O)O)c(O)c3ccccc23)cc1 (stereo not given in full) | 27.4
41 | CC(C)C[C@H](NC(=O)CSc1cc(NS(=O)(=O)c2ccc(Cl)cc2)c2ccccc2c1O)B(O)O | 45.1

Tested on: MDA-MB-231
Experiment: Antiproliferative activity against human MDA-MB-231 cells after 72 hrs by SRB assay
Assay type: functional, cell-based
Details: Homo sapiens, MDA-MB-231, 72 h

Row | IC50 [µM] | Compound
42 | 6.52 | CC(C)C[C@H](NC(=O)CSc1cc(NS(=O)(=O)c2cccs2)c2ccccc2c1O)B(O)O
43 | 10.6 | CC(C)C[C@H](NC(=O)CSc1cc(NS(=O)(=O)c2ccccc2)c2ccccc2c1O)B(O)O
44 | 7.45 | CC(C)C[C@H](NC(=O)C(C)Sc1cc(NS(=O)(=O)c2cccs2)c2ccccc2c1O)B(O)O (stereo not given in full)
45 | 4.45 | CC(C)C[C@H](NC(=O)CCSc1cc(NS(=O)(=O)c2cccs2)c2ccccc2c1O)B(O)O
46 | 3.12 | CC(C)C[C@H](NC(=O)[C@H](Cc1ccccc1)NC(=O)c1cnccn1)B(O)O [BORTEZOMIB]
47 | 4.2 | CC(C)C[C@H](NC(=O)CCSc1cc(NS(=O)(=O)c2ccccc2)c2ccccc2c1O)B(O)O

The next lines start with the compound.

Row | Compound | IC50 [µM]
48 | CC(C)C[C@H](NC(=O)CCSc1cc(NS(=O)(=O)c2ccc(Cl)cc2)c2ccccc2c1O)B(O)O | 4.09
49 | Cc1ccc(S(=O)(=O)Nc2cc(SCC(=O)N[C@@H](CC(C)C)B(O)O)c(O)c3ccccc23)cc1 | 14
50 | CC(=O)Nc1ccc(S(=O)(=O)Nc2cc(SCC(=O)N[C@@H](CC(C)C)B(O)O)c(O)c3ccccc23)cc1 | 4.45
51 | Cc1ccc(S(=O)(=O)Nc2cc(SC(C)C(=O)N[C@@H](CC(C)C)B(O)O)c(O)c3ccccc23)cc1 (stereo not given in full) | 8.13
52 | CC(C)C[C@H](NC(=O)C(C)Sc1cc(NS(=O)(=O)c2ccc(Cl)cc2)c2ccccc2c1O)B(O)O (stereo in doubt; 3c) [listing 1 of 2 here] | 6.15
53 | CC(=O)Nc1ccc(S(=O)(=O)Nc2cc(SCCC(=O)N[C@@H](CC(C)C)B(O)O)c(O)c3ccccc23)cc1 | 2.12
54 | Cc1ccc(S(=O)(=O)Nc2cc(SCCC(=O)N[C@@H](CC(C)C)B(O)O)c(O)c3ccccc23)cc1 | 6.15
55 | CC(=O)Nc1ccc(S(=O)(=O)Nc2cc(SC(C)C(=O)N[C@@H](CC(C)C)B(O)O)c(O)c3ccccc23)cc1 (stereo not given in full) | 2.8
56 | CC(C)C[C@H](NC(=O)CSc1cc(NS(=O)(=O)c2ccc(Cl)cc2)c2ccccc2c1O)B(O)O | 6.19

Same assay, conditions: mda-mb-231

Row | IC50 [µM] | Compound
57 | 11.1 | CC(C)C[C@H](NC(=O)C(C)Sc1cc(NS(=O)(=O)c2ccccc2)c2ccccc2c1O)B(O)O (stereo in doubt; 3b) [listing 1 of 2 here]
58 | 6.46 | CC(C)C[C@H](NC(=O)C(C)Sc1cc(NS(=O)(=O)c2ccc(Cl)cc2)c2ccccc2c1O)B(O)O (stereo in doubt; 3c-1) [listing 1 of 2 here]
59 | 5.11 | CC(C)C[C@H](NC(=O)C(C)Sc1cc(NS(=O)(=O)c2ccccc2)c2ccccc2c1O)B(O)O (stereo in doubt; 3b-1) [listing 1 of 2 here]

Molecular target: T1, Proteasome Macropain subunit MB1 (Homo sapiens)
Experiment: Inhibition of chymotrypsin-like activity of human 20S proteasome at 10 nM using Suc-Leu-Leu-Val-Tyr-AMC as substrate by fluorescence assay relative to control
Details: not given

Row | inhibition [%] | Compound
60 | 51.2 | CC(C)C[C@H](NC(=O)[C@H](Cc1ccccc1)NC(=O)c1cnccn1)B(O)O [BORTEZOMIB]
